This is an account of results in patent US12533300B2, “Self-assembling peptides in the prevention and treatment of cavitated carious lesions” (Credentis AG, priority 2019, dated 2026).

A short description of data set [1]: Release profile of model substance Congo Red from dental materials into PBS (photometer, 500 nm). It counts as physicochemical. Here is the method:
As well-known to the person skilled in the art, a release profile of an agent, i.e. fluoride or self-assembling peptide, depends on the matrix of the material (Mousavinasab et al., 2009, Dent Res J (Isfahan) 6(2):75-81). In the following experiment, the release profile of a model substance mimicking self-assembling peptide, Congo Red, was assessed after the incorporation into the dental material. The material was prepared and applied as per instructions for use (IFU), usually describing the use of 0.5-0.75 mL of the respective products. To mimic the saliva, Phosphate Buffered Saline (PBS) was used. PBS matches the osmolarity and ion concentrations of the human body—it is isotonic. To mimic the constant saliva flux, the applied amount was placed in a solution equal to 1 h saliva flux, which is about 20 mL. The diffusion of the material was assessed at 500 nm with a photometer. Release Profile a) Preparation of Varnish (Duraphat) and Paro Amin Fluor Gelée • Per suppliers IFU, it is recommend to add 0.5-1 mL of the varnish to a carious site. The concentration of Congo Red was chosen to lead a distinct signal in the UV Vis. • Place 12 mg Congo Red in 2 mL Eppendorf tube • Add 2 mL of the varnish directly into the tube with a syringe • Mix Congo Red and varnish vigorously until content uniformity is reached • Pick up product with syringe • Place 0.5-0.75 ml of the product on a microscopic slide as a thin film—as recommended per IFU • Let it air dry—as per IFU b) Preparation of Lonofil (Glass Ionomer Restorative Material) • Place 12 mg Congo Red directly in a dental cup • Add 2 spoons of lonofil Plus as per IFU • Add 2 drops of water and mix as per IFU • Place amount of product on microscopic slide c) Incubation Prepare the PBS Solution with 1% EtOH for preservation • Place slide in 50 ml centrifugation tube • Add 20 mL of PBS • Place on rotating wheel d) Measurement and Calculation • Directly decant 1 mL of incubated fluid into UV-Cell • Measure at 500 nm, control/blank=PBS with 1% EthOH subtract control w/o Congo Red from measured value

The conditions of data set [2]: Alkilzy et al., 2018; cited from earlier work.
Data set [3] can be described thus: Pulp capping with P11-4 solution under dental material. It counts as in vivo. As to conditions: exposed pulp covered with P11-4 solution (e.g., 100 μl, 10 mg/mL, pH 8) before Resin Composite. As to the method:
A cavity exposing the pulp is excavated due to dental caries. The pulp is covered with P11-4 solution (e.g., 100 μl, 10 mg/mL, pH 8) before placing of a dental material, e.g., Resin Composite according to the manufacturer's instructions (e.g., application in layers and light curing, as appropriate).

Data set [4] can be described thus: Release profile of P11-4 from varnish and glass ionomer cement (280 nm). It counts as physicochemical. As to the method: The material was prepared and applied as per instructions for use (IFU), usually describing the use of 0.5-0.75 mL of the respective products. To mimic the saliva, Phosphate Buffered Saline (PBS) was used. PBS matches the osmolarity and ion concentrations of the human body—it is isotonic. To mimic the constant saliva flux, the applied amount was placed in a solution equal to 1 h saliva flux, which is about 20 mL. The diffusion of the material was assessed at 500 nm with a photometer.
Release Profile a) Preparation of Varnish (Duraphat) and Paro Amin Fluor Gelée • Per suppliers IFU, it is recommend to add 0.5-1 mL of the varnish to a carious site. The concentration of Congo Red was chosen to lead a distinct signal in the UV Vis. • Place 12 mg Congo Red in 2 mL Eppendorf tube • Add 2 mL of the varnish directly into the tube with a syringe • Mix Congo Red and varnish vigorously until content uniformity is reached • Pick up product with syringe • Place 0.5-0.75 ml of the product on a microscopic slide as a thin film—as recommended per IFU • Let it air dry—as per IFU b) Preparation of Lonofil (Glass Ionomer Restorative Material) • Place 12 mg Congo Red directly in a dental cup • Add 2 spoons of lonofil Plus as per IFU • Add 2 drops of water and mix as per IFU • Place amount of product on microscopic slide c) Incubation
Prepare the PBS Solution with 1% EtOH for preservation • Place slide in 50 ml centrifugation tube • Add 20 mL of PBS • Place on rotating wheel d) Measurement and Calculation • Directly decant 1 mL of incubated fluid into UV-Cell • Measure at 500 nm, control/blank=PBS with 1% EthOH subtract control w/o Congo Red from measured value
Example 7 was in essence carried out as Example 6, but with the self-assembling peptide P11-4, if not otherwise described. 12 mg of P11-4 (credentis AG), in monomeric form, were added to either the varnish Duraphat (Sample ID: AP) or the glass ionomer cement Aqua lonofil Plus (Sample ID BP) in the amounts and under the conditions described above. The incubation was carried out in a static manner at room temperature. Measurement was at 280 nm, and the control value for buffer without peptide was subtracted from the measured value.

As for `Nc1c(/N=N/c2ccc(-c3ccc(/N=N/c4cc(S(=O)(=O)O)c5ccccc5c4N)cc3)cc2)cc(S(=O)(=O)O)c2ccccc12` [Congo red, Congo Red], in data set [1] (Aqua Ionofil Plus, FIG. 4A), the “Time course of Congo Red release from glass ionomer cement” value is “constant and increases with time”. Also, in data set [1] (Duraphat versus Aqua Ionofil Plus, FIG. 4A), the “Speed of Congo Red release from varnish relative to glass ionomer cement” value is given as “quicker”. In addition, the “Release of Congo Red from paro Amin Fluor Gelée” value in data set [1] (Sample 2, used for comparison, 20 mL PBS with 1% EtOH, FIG. 4B) was “released”. Besides, in data set [1] (sample A1, 12 mg Congo Red in 2 mL varnish, 20 mL PBS with 1% EtOH, FIG. 4A), the “Release of Congo Red from varnish Duraphat” value is on record as “released”. Further, in data set [1] (sample B1, 12 mg Congo Red, 20 mL PBS with 1% EtOH, FIG. 4A), the “Release of Congo Red from glass ionomer cement Aqua Ionofil Plus” value is “released”.
Regarding “P11-4: self-assembling peptide, sequence QQRFEWEFEQQ (P11-4)”, the “Effect on early carious lesions in combination with fluoride, compared to fluoride alone” value in data set [2] is recorded as “additional effect”. Moreover, the “Pulp symptoms (pulpitis) after pulp capping” value in data set [3] was “remains symptoms free”. Also, the “Speed of P11-4 release from varnish relative to glass ionomer cement” value in data set [4] (Duraphat versus Aqua Ionofil Plus, FIG. 4C) was “quicker”. The “Release of P11-4 from varnish Duraphat” value in data set [4] (sample AP, 12 mg monomeric P11-4, static incubation at room temperature, FIG. 4C) is “slowly and substantially constantly released”. For the same compound, the “Release of P11-4 from glass ionomer cement Aqua Ionofil Plus” value in data set [4] (sample BP, 12 mg monomeric P11-4, static incubation at room temperature, FIG. 4C) was “slowly and substantially constantly released”. Moreover, the “Amount of released peptide over time” value in data set [4] (varnish and glass ionomer cement, measured for several days) was “increases with time”.
